Among the test systems are HT-29; SNB-19; NCI-H23; K562; NCI/ADR-RES; SF-295; CCRF-CEM; LOX IMVI; A498; T47D; UACC-62; HCC 2998; 786-0; HCT-15; DU-145; KM12; SR; HOP-92; NCI-H226; HCT-116.
Common to all, as to test: DTP human tumour cell line panel, 48 h

We go through ten molecules from ChEMBL document CHEMBL1201862, “PubChem BioAssay data set” (2004).

The term GI50 denotes the concentration that inhibits growth by half.

SMILES strings stand for the structures.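 In this assay, cells in 96-well plates receive the compound at five concentrations for 48 hours. Endpoints are linearly interpolated between the surrounding concentrations. At the GI50, growth is halved.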 Active and inactive are the calls of the source. Cut-off read from the data, not from the text of the source: active = GI50 up to about 1.1 µM and inactive = higher. Bounds are passed on as bounds.

As to `CCOC(=O)C(NC(=O)CC)(Nc1ccc(S(=O)(=O)Nc2nc(C)cc(C)n2)cc1)C(F)(F)F` (centres undefined), the GI50 with HT-29, in the experiment with SNB-19, in the experiment on NCI-H23, with K562, with NCI/ADR-RES and with SF-295 was > 100 µM (inactive) throughout. The GI50 in the experiment with CCRF-CEM, with LOX IMVI, with A498, in the experiment on T47D, in the experiment with UACC-62 and in the experiment with HCC 2998 was > 100 µM (inactive) in each case. Also, the GI50 with 786-0 was > 100 µM (inactive); in the experiment on HCT-15 it was > 100 µM; in the experiment with DU-145, > 100 µM (inactive); with KM12 it was > 100 µM (inactive); with SR, > 100 µM (inactive); in the experiment with HOP-92, > 100 µM (inactive). Further, the GI50 in the experiment on NCI-H226 and in the experiment on HCT-116 was > 100 µM (inactive) each time.
As to `Clc1nc(Cl)nc(NC23CC4CC(CC(C4)C2)C3)n1`, the GI50 was 17.9 µM (inactive) with HT-29; 21.4 µM (inactive) in the experiment on SNB-19; 18.5 µM (inactive) in the experiment with NCI-H23; 13.7 µM (inactive) with K562; 21 µM (inactive) with NCI/ADR-RES; 19.7 µM (inactive) with SF-295. Further, the GI50 is 7.55 µM (inactive) in the experiment with CCRF-CEM; 13.4 µM (inactive) in the experiment on LOX IMVI; > 43.4 µM (inactive) in the experiment with A498; 17.2 µM (inactive) in the experiment with T47D; 17.9 µM (inactive) in the experiment on UACC-62; 20.3 µM (inactive) in the experiment with HCC 2998. The GI50 with 786-0 was 17.3 µM (inactive); in the experiment on HCT-15 it was 15.6 µM; in the experiment with DU-145, 16.7 µM (inactive); in the experiment on KM12 it was 14.9 µM (inactive); with SR, 20.1 µM (inactive); in the experiment with HOP-92, 17.2 µM (inactive). Also, the GI50 was 21 µM (inactive) in the experiment with NCI-H226 and 17.1 µM (inactive) with HCT-116.
For the molecule `CC1(C)C(=O)C2(OS(=O)(=O)C(F)(F)F)CCC1C2` (centres undefined), the GI50 in the experiment on HT-29, in the experiment with SNB-19, with NCI-H23, in the experiment on K562, in the experiment with NCI/ADR-RES and in the experiment with SF-295 was > 100 µM (inactive) each time. Besides, the GI50 in the experiment on CCRF-CEM, in the experiment with LOX IMVI, in the experiment on A498, in the experiment with T47D, in the experiment with UACC-62 and in the experiment on HCC 2998 was > 100 µM (inactive) throughout. Moreover, the GI50 in the experiment with 786-0 was > 100 µM (inactive); in the experiment with HCT-15, > 100 µM; in the experiment on DU-145 it was > 100 µM (inactive); in the experiment with KM12, > 100 µM (inactive); in the experiment on SR it was 1 µM (active); with HOP-92, > 100 µM (inactive). The GI50 in the experiment on NCI-H226 and in the experiment on HCT-116 was > 100 µM (inactive) each time.
`COC(CO[Si](C)(C)N[Si](C)(C)OCC(OC)c1ccccc1)c1ccccc1` (centres undefined): the GI50 in the experiment on SNB-19, in the experiment on NCI-H23, in the experiment with K562, with NCI/ADR-RES, in the experiment on SF-295 and in the experiment with CCRF-CEM was > 100 µM (inactive) in each case. Further, the GI50 in the experiment on LOX IMVI, with A498, with T47D, in the experiment with UACC-62, in the experiment on HCC 2998 and with 786-0 was > 100 µM (inactive) in each case. For the same molecule, the GI50 is > 100 µM in the experiment on HCT-15; > 100 µM (inactive) in the experiment with DU-145; > 100 µM (inactive) in the experiment with KM12; > 100 µM (inactive) in the experiment on SR; > 100 µM (inactive) in the experiment on HOP-92; > 100 µM (inactive) in the experiment with NCI-H226. The GI50 in the experiment on HCT-116 is > 100 µM (inactive).
Consider `N#CS/C(C(Cl)=C(Cl)Cl)=C(/Cl)[N+](=O)[O-]`, for which the GI50 in the experiment with HT-29 was 1.9 µM (inactive); in the experiment on SNB-19, 20.2 µM (inactive); in the experiment with NCI-H23, 2.7 µM (inactive); with K562 it was 0.603 µM (active); in the experiment with NCI/ADR-RES, 3.88 µM (inactive); in the experiment with SF-295, 22.2 µM (inactive). The GI50 is 0.284 µM (active) in the experiment with CCRF-CEM; 0.904 µM (active) in the experiment with LOX IMVI; 17.1 µM (inactive) in the experiment on A498; 1.99 µM (inactive) in the experiment on T47D; 4.26 µM (inactive) with UACC-62; 18.6 µM (inactive) with HCC 2998. Moreover, the GI50 was 1.68 µM (inactive) with 786-0; 2.32 µM in the experiment with HCT-15; 13.8 µM (inactive) with DU-145; 9.64 µM (inactive) in the experiment with KM12; 0.778 µM (active) in the experiment with SR; 2.37 µM (inactive) in the experiment on HOP-92. In addition, the GI50 in the experiment on NCI-H226 is 7.66 µM (inactive); in the experiment on HCT-116, 1.5 µM (inactive).
With `CC(O)C1(O)C(O)CC(OC2c3cc4c(c(O)c3[C@@H]3C[C@@]2(C)OC32C=c3cc[nH]c3=N2)C(=O)c2cccc(O)c2C4=O)OC1C` (some centres undefined), the GI50 in the experiment on HT-29 was 0.644 µM (active); with SNB-19, 2.34 µM (inactive); with NCI-H23 it was 1.53 µM (inactive); with K562 it was 0.935 µM (active); in the experiment on NCI/ADR-RES, 3.44 µM (inactive); in the experiment on SF-295, 1.87 µM (inactive). Moreover, the GI50 is 0.34 µM (active) in the experiment on CCRF-CEM; 0.555 µM (active) in the experiment with LOX IMVI; 1.29 µM (inactive) in the experiment on A498; 3.1 µM (inactive) in the experiment on T47D; 1.31 µM (inactive) in the experiment with UACC-62; 1.11 µM (active) in the experiment with HCC 2998. Further, the GI50 in the experiment with 786-0 is 1.04 µM (active); in the experiment on HCT-15, 2.03 µM; in the experiment on DU-145, 1.15 µM (inactive); with KM12, 1.07 µM (active); in the experiment on SR, 0.287 µM (active); with HOP-92, 1.64 µM (inactive). Also, the figures for the GI50 in the experiment on NCI-H226 and in the experiment on HCT-116 were 0.701 µM (active) and 0.789 µM (active), respectively.
Turning to `Cc1ccc(CNc2ccc(Br)cc2)cc1`, the GI50 in the experiment with HT-29 was 28.2 µM (inactive); in the experiment with SNB-19, > 100 µM (inactive); in the experiment on NCI-H23, 50.2 µM (inactive); in the experiment with K562, 22.9 µM (inactive); in the experiment on NCI/ADR-RES, 29.4 µM (inactive); in the experiment on SF-295 it was 47.8 µM (inactive). Further, the GI50 is 11.5 µM (inactive) in the experiment with CCRF-CEM; 2.01 µM (inactive) in the experiment with LOX IMVI; 29.3 µM (inactive) in the experiment on A498; 29.5 µM (inactive) with T47D; 4.41 µM (inactive) in the experiment with UACC-62; 20.6 µM (inactive) in the experiment with HCC 2998. Moreover, the GI50 in the experiment with 786-0 is 48.3 µM (inactive); in the experiment on HCT-15, 10.4 µM; in the experiment with DU-145 it was 90.4 µM (inactive); in the experiment with KM12, 16.3 µM (inactive); in the experiment with SR it was 18.8 µM (inactive); in the experiment on HOP-92, 15 µM (inactive). Further, the GI50 in the experiment with NCI-H226 was 60 µM (inactive); in the experiment on HCT-116 it was 26.7 µM (inactive).
For the molecule `C=C1C(=O)OC2/C=C(\CO)CC/C=C(\CO)CC(OC(=O)C(C)C)C12` (centres undefined), the GI50 with HT-29 was 14.6 µM (inactive); in the experiment with SNB-19 it was 21.5 µM (inactive); in the experiment with NCI-H23 it was 19.3 µM (inactive); in the experiment on K562 it was 1.71 µM (inactive); with NCI/ADR-RES it was 17.6 µM (inactive); in the experiment on SF-295 it was 21.3 µM (inactive). For the same molecule, the GI50 in the experiment with CCRF-CEM is 2.99 µM (inactive); with LOX IMVI, 13.5 µM (inactive); with A498 it was 21.6 µM (inactive); in the experiment on T47D, 4.72 µM (inactive); with UACC-62 it was 14.1 µM (inactive); in the experiment with HCC 2998, 20.7 µM (inactive). Besides, the GI50 in the experiment on 786-0 was 5.52 µM (inactive); with HCT-15, 3.19 µM; with DU-145, 12.7 µM (inactive); in the experiment with KM12 it was 18.2 µM (inactive); in the experiment on SR, 4.79 µM (inactive); in the experiment on HOP-92, 1.27 µM (inactive). Besides, the GI50 in the experiment with NCI-H226 was 16 µM (inactive); in the experiment with HCT-116 it was 7.4 µM (inactive).
As for `C=CC1(CC[C@]2(c3ccc(OC)c(OC)c3)C=[N+]([O-])O[C@H](O[C@@H]3CCCC[C@H]3C(C)(C)c3ccccc3)C2)OCC(C)(C)CO1`, the GI50 with HT-29 was 9.79 µM (inactive); with SNB-19, 21.9 µM (inactive); in the experiment with NCI-H23, 16.2 µM (inactive); in the experiment with K562, 8.17 µM (inactive); in the experiment on NCI/ADR-RES it was 10.7 µM (inactive); in the experiment on SF-295, 22.1 µM (inactive). Also, the GI50 is 4.18 µM (inactive) with CCRF-CEM; 10.5 µM (inactive) in the experiment with LOX IMVI; > 45 µM (inactive) with A498; 11.6 µM (inactive) in the experiment on T47D; 14 µM (inactive) in the experiment with UACC-62; 16.1 µM (inactive) in the experiment with HCC 2998. For the same molecule, the GI50 in the experiment on 786-0 was 11.9 µM (inactive); with HCT-15, 8.2 µM; in the experiment with DU-145, 13.9 µM (inactive); in the experiment on KM12, 14.3 µM (inactive); in the experiment on SR, > 19.9 µM (inactive); in the experiment with HOP-92 it was 13.5 µM (inactive). Moreover, the GI50 in the experiment on NCI-H226 is 19.9 µM (inactive); in the experiment on HCT-116 it was 5.57 µM (inactive).
Consider `Cn1c2ccccc2c(=S)c2cc(NC(=O)CCCCC(=O)Nc3ccc4c(c3)c(=S)c3ccccc3n4C)ccc21`, for which the GI50 with HT-29, with SNB-19, in the experiment on NCI-H23, in the experiment with K562, in the experiment on NCI/ADR-RES and in the experiment on SF-295 was > 100 µM (inactive) each time. The GI50 in the experiment with CCRF-CEM, in the experiment on LOX IMVI, in the experiment with A498, with T47D, with UACC-62 and in the experiment with HCC 2998 was > 100 µM (inactive) in each case. Further, the GI50 is 72.1 µM (inactive) with 786-0; > 100 µM in the experiment on HCT-15; > 100 µM (inactive) with DU-145; > 100 µM (inactive) in the experiment with KM12; > 100 µM (inactive) in the experiment with SR; > 100 µM (inactive) in the experiment on HOP-92. The GI50 with NCI-H226 and with HCT-116 was > 100 µM (inactive) each time.
